Assay results as given in patent US11584775B2, “C4-modified oleanolic acid derivatives for inhibition of IL-17 and other uses” (REATA PHARMACEUTICALS, INC., priority 2015, dated 2023).

Columns and labels:
[1] = test system: hIL17; assay: IL-17 release from differentiated primary human T-cells (IL-17A HTRF assay); assay type: cell-based; settings: inhibition of IL-17A levels; primary human CD4+ T cells differentiated into Th17 cells, 46-hour incubation
Procedure: D. IL-17 Release from Differentiated Primary Human T-Cells and Cell Viability
Primary human cryopreserved CD4+ T Cells (Lonza, donor #0000402103) were plated in Lymphocyte Growth Medium-3 (LGM-3, Lonza) according to the manufacturer's recommendations, and allowed to recover for approximately 3 hours at 37° C. with 5% CO2 in a humidified atmosphere. After the recovery step, cells were collected by centrifugation and re-plated in 96-well plates at a density of ˜140,000 cells per well in LGM-3 medium that contained DMSO (vehicle) or test compound (2-500 nM or 4-1000 nM concentration range). Triplicate wells were plated for each test condition. DMSO (final concentration ≤0.1%) was used as the vehicle. Immediately after plating, CD4+ T cells were activated by adding Dynabeads Human T-Activator CD3/CD28 (Life Technologies; bead-to-cell ratio of 1:2.5) and differentiated into Th17 cells by adding a mixture of the following cytokines: transforming growth factor-β (TGF-β, 5 ng/mL), IL-6 (20 ng/mL), IL-23 (20 ng/mL), and […] (10 ng/mL). Undifferentiated control cells received only cytokine IL-2 (50 ng/mL). All human recombinant cytokines were purchased from R&D Systems. Following a 46-hour incubation at 37° C. with 5% CO2 in a humidified atmosphere, the plates were centrifuged for 3 minutes at 250×g, and half of the supernatant was transferred to a new plate to be used in the IL-17A assay (see below). Cell viability was assessed in the original plate using the CyQuant Direct Assay (Life Technologies). CyQuant values from test compound samples were normalized to those from DMSO-treated samples. The concentration of IL-17A in the supernatant was measured using the Homogeneous Time-Resolved Fluorescence (HTRF) assay (Cisbio Bioassays) according to the manufacturer's protocol. The assay was performed at room temperature in low volume, solid white 384-well plates (Greiner Bio-One). Samples and standards (serially-diluted human recombinant IL-17A (0 to 5,000 pg/mL concentration range; Cisbio Bioassays) were incubated with the anti-human IL-17A antibody conjugate for 16 hours and fluorescence was measured using a Pherastar FS microplate reader (BMG Labtech) in the HTRF mode (excitation at 337 nm and emission at 665 nm and 620 nm). IL-17A concentrations were assessed in duplicate aliquots of supernatant from each well resulting in a total of six readings per test condition. The 665 nm/620 nm signal ratio was calculated and the concentration of IL-17A in each sample was determined by interpolation from the standard curve. IL-17A values from test compound samples were normalized to those from DMSO-treated samples. Data were analyzed using GraphPad Prism version 6.00 for Windows (GraphPad Software, La Jolla Calif. USA). A non-linear regression analysis with log (inhibitor) vs. normalized response using a variable slope was applied to fit the data and determine the IC50 values for inhibition of IL-17A levels and cell viability.

[2] = target: T1, human RORγ (Homo sapiens, UniProt P51449); assay: RORγ assay (GAL4-RORγ hybrid luciferase reporter, inverse-agonist activity); assay type: cell-based; settings: GAL4-RORγ hybrid reporter cells, 23 hours
T1 sequence (P51449 269-508 limits assumed): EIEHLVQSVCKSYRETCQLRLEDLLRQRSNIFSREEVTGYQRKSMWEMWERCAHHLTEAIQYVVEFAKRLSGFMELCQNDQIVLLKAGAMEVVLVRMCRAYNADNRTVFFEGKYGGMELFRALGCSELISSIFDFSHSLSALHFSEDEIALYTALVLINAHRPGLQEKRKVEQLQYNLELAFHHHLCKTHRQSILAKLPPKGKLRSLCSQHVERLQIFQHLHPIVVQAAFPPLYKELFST
Description: C. RORγ Assay and Cell Viability
The RORγ assay system was purchased from Indigo Biosciences. This nuclear receptor assay utilizes a human cell line that has been engineered to express a hybrid form of the Human RAR-related Orphan Receptor Gamma (RORγ) at high levels. The N-terminal DNA binding domain (DBD) of the native RORγ receptor was substituted with the yeast GAL4-DBD to generate the GAL4-RORγ hybrid nuclear receptor. The reporter cell line is transfected with a plasmid that encodes the beetle luciferase gene under the control of the GAL4 upstream activating sequence (UAS). GAL4 binds to the UAS and increases transcription of downstream target genes. […] To assess the RORγ inverse-agonist activity of the test compounds, reporter cells were plated in white 96-well plates in triplicate and were treated with DMSO (vehicle) or test compound (concentration ranges of 0.4-200 nM or 2-1000 nM) at 37° C. with 5% CO2 in a humidified atmosphere for 23 hours. After this incubation, luciferin was added to the wells and luciferase activity was determined by measuring the luminescence signal using a BMG Pherastar microplate reader. Viability was determined using the Live Cell Multiplex Assay (Indigo Biosciences). Values from test compound samples were normalized to those from DMSO-treated samples. Data were analyzed using GraphPad Prism version 6.00 for Windows (GraphPad Software, La Jolla Calif. USA). A non-linear regression analysis with log (inhibitor) vs. normalized response using a variable slope was applied to fit the data and determine the IC50 values for inhibition of RORγ and cell viability.

[3] = test system: NRF2; assay: AREc32 luciferase reporter assay; assay type: cell-based, human; settings: EC2×: concentration required to increase GST ARE Luciferase reporter activity by 2-fold; AREc32 cells, 19 hours
Description: B. AREc32 Luciferase Reporter Assay
The AREc32 luciferase reporter assay allows for quantitative assessment of the endogenous activity of the Nrf2 transcription factor in cultured mammalian cells. AREc32 cells are derived from MCF-7 human breast carcinoma cells that were stably transfected with a reporter construct that contains the firefly luciferase gene located downstream of eight copies of the rat GSTA2 antioxidant response element (ARE) sequence (Wang et al., 2006; CXR Biosciences). Active NRF2 binds to the ARE sequences and increases expression of the firefly luciferase gene. To assess the NRF2-activating potential of the test compounds, AREc32 cells were plated in black 96-well plates at a density of 20,000 cells per well in triplicate in DMEM+10% FBS+0.8 mg/mL Geneticin and incubated at 37° C. with 5% CO2 in a humidified atmosphere. The next day, cells were treated with DMSO (vehicle) or test compound (concentration ranges of 0.4-200 nM or 2-1000 nM) for 19 hours. Luciferase activity was determined using the ONE-Glo Luciferase assay (Promega). The luminescence signal was measured on a BMG Pherastar microplate reader. The mean luminescence value from test compound-treated wells was normalized to that from DMSO-treated wells and was represented as fold-induction. Data were analyzed using GraphPad Prism version 6.00 for Windows, GraphPad Software, La Jolla Calif. USA. A non-linear regression curve with log (agonist) vs. response using a variable slope was used to fit the data. Where applicable, a maximum threshold value of 50-fold over DMSO was set. EC2× values were interpolated from the curve. EC2× corresponds to the concentration of test compound required to increase GST ARE Luciferase reporter activity by 2-fold.

[4] = test system: IFNγ-induced Nitric Oxide production; assay: Nitric oxide production assay in RAW 264.7 mouse macrophages; assay type: cell-based; settings: RAW264.7, suppression of IFNγ-induced NO production normalized to cell viability (WST-1), RAW 264.7, 24 hours IFNγ
Procedure: A. Nitric Oxide Production Assay and Cell Viability
RAW 264.7 mouse macrophages were plated in 96-well plates at a density of 30,000 cells per well in triplicate in RPMI 1640+0.5% FBS and incubated at 37° C. with 5% CO2 in a humidified atmosphere. The next day, cells were pre-treated with DMSO (vehicle) or test compound (concentration ranges of 0.4-200 nM or 2-1000 nM) for 2 hours and then treated with recombinant mouse IFNγ (R&D Systems) for 24 hours. Nitric oxide concentration in media was determined using the Griess reagent system (Promega). Cell viability was determined using WST-1 reagent (Roche). Values from test compound samples were normalized to those from DMSO/IFNγ-treated samples. IC50 values were determined based on the suppression of IFNγ-induced Nitric Oxide production normalized to cell viability.

With Cc1nnc([C@]23CCC(C)(C)C[C@H]2[C@H]2C(=O)C=C4[C@@]5(C)C=C(C#N)C(=O)[C@@](C)(CO)[C@@H]5CC[C@@]4(C)[C@]2(C)CC3)o1 [Compound T42, (4R,4aR,6aS,6bR,8aS,12aS,12bR,14bS)-4-(hydroxymethyl)-4,6a,6b, 11,11,14b-hexamethyl-8a-(5-methyl-1,3,4-oxadiazol-2-yl)-3,13-dioxo-3,4,4a,5,6,6a,6b,7,8,8a,9,10,11,12,12a,12b,13,14b-octadecahydropicene-2-carbonitrile] the IC50 [1] was 101 nM, the IC50 [2] was 389 nM and the “EC2x: concentration giving 2-fold induction of ARE luciferase reporter” value [3] was 97 nM. The IC50 [4] was 10.4 nM.
COCOC[C@@]1(C)C(=O)C(C#N)=C[C@]2(C)C3=CC(=O)[C@@H]4[C@@H]5CC(C)(C)CC[C@]5(C(=O)OC)CC[C@@]4(C)[C@]3(C)CC[C@@H]12 [Comparison Compound #302, reference compound] was tested, and the IC50 [1] was 24 nM, the IC50 [2] was 91 nM and the “EC2x: concentration giving 2-fold induction of ARE luciferase reporter” value [3] was 78 nM. It also gave an IC50 [4] of 13.1 nM.
With COC(=O)N[C@]12CCC(C)(C)C[C@H]1[C@H]1C(=O)C=C3[C@@]4(C)C=C(C#N)C(=O)C(C)(C)[C@@H]4CC[C@@]3(C)[C@]1(C)CC2 [Comparison Compound #7, reference compound] the IC50 [1] was 27 nM, the IC50 [2] was 371 nM and the “EC2x: concentration giving 2-fold induction of ARE luciferase reporter” value [3] was 20 nM. For the same molecule, the IC50 [4] was 2.4 nM.
For COC(=O)[C@]12CCC(C)(C)C[C@H]1[C@H]1C(=O)C=C3[C@@]4(C)C=C(C#N)C(=O)[C@@](C)(N)[C@@H]4CC[C@@]3(C)[C@]1(C)CC2 [Compound T11, methyl (4aS,6aR,6bS,8aR,9S,12aS,14aR,14bS)-9-amino-11-cyano-2,2,6a,6b,9,12a-hexamethyl-10,14-dioxo-1,3,4,5,6,6a,6b,7,8,8a,9,10,12a,14,14a,14b-hexadecahydropicene-4a(2H)-carboxylate], the IC50 [1] was 75 nM, the IC50 [2] was 146 nM and the “EC2x: concentration giving 2-fold induction of ARE luciferase reporter” value [3] was 477 nM. For the same molecule, the IC50 [4] was 601 nM.
For COC(=O)[C@]12CCC(C)(C)C[C@H]1[C@H]1C(=O)C=C3[C@@]4(C)C=C(C#N)C(=O)[C@@](C)(COC(C)=O)[C@@H]4CC[C@@]3(C)[C@]1(C)CC2 [Compound T8, methyl (4aS,6aR,6bS,8aR,9R,12aS,14aR,14bS)-9-(acetoxymethyl)-11-cyano-2,2,6a,6b,9,12a-hexamethyl-10,14-dioxo-1,3,4,5,6,6a,6b,7,8,8a,9,10,12a,14,14a,14b-hexadecahydropicene-4a(2H)-carboxylate], the IC50 [1] was 24 nM, the IC50 [2] was 109 nM and the “EC2x: concentration giving 2-fold induction of ARE luciferase reporter” value [3] was 276 nM. It also gave an IC50 [4] of 74.6 nM.
With COC(=O)[C@]12CCC(C)(C)C[C@H]1[C@H]1C(=O)C=C3[C@@]4(C)C=C(C#N)C(=O)[C@@](C)(C(F)F)[C@@H]4CC[C@@]3(C)[C@]1(C)CC2 [Compound T4, methyl (4aS,6aR,6bS,8aR,9S,12aS,14aR,14bS)-11-cyano-9-(difluoromethyl)-2,2,6a,6b,9,12a-hexamethyl-10,14-dioxo-1,3,4,5,6,6a,6b,7,8,8a,9,10,12a,14,14a,14b-hexadecahydropicene-4a(2H)-carboxylate] the IC50 [1] was 29 nM, the IC50 [2] was 234 nM and the “EC2x: concentration giving 2-fold induction of ARE luciferase reporter” value [3] was 36 nM. It also gave an IC50 [4] of 19.6 nM.
For CC1(C)CC[C@@]23CC[C@@]4(C)[C@]5(C)CC[C@@H]6[C@@](C)(C5=CC(=O)[C@]4(OC2=O)[C@@H]3C1)[C@H]1O[C@@]1(C#N)C(=O)[C@@]6(C)O [Compound T50, (1aR,3S,3aR,5aR,5bS,7aS,11aR,11bS,13bS,13cR)-3-hydroxy-3,5a,5b,10,10,13b-hexamethyl-2,12,15-trioxo-3,3a,4,5,5a,6,7,9,10,11,11a,12,13b,13c-tetradecahydro-2H, 8H-11b,7a-(epoxymethano)piceno[1,2-b]oxirene-1a(5bH)-carbonitrile], the IC50 [1] was 11 nM, the IC50 [2] was 1040 nM and the “EC2x: concentration giving 2-fold induction of ARE luciferase reporter” value [3] was 162 nM. It also gave an IC50 [4] of 65.4 nM.
COC(=O)[C@]12CCC(C)(C)C[C@H]1[C@H]1C(=O)C=C3[C@@]4(C)C=C(C#N)C(=O)[C@@](C)(O)[C@@H]4CC[C@@]3(C)[C@]1(C)CC2 [Compound T5] was tested, and the IC50 [1] was 18 nM, the IC50 [2] was 115 nM and the “EC2x: concentration giving 2-fold induction of ARE luciferase reporter” value [3] was 56 nM. For the same molecule, the IC50 [4] was 22.6 nM.
With Cc1noc([C@]23CCC(C)(C)C[C@H]2[C@H]2C(=O)C=C4[C@@]5(C)C=C(C#N)C(=O)C(C)(C)[C@@H]5CC[C@@]4(C)[C@]2(C)CC3)n1 [Comparison Compound #9, reference compound] the IC50 [1] was 18 nM, the IC50 [2] was 176 nM and the “EC2x: concentration giving 2-fold induction of ARE luciferase reporter” value [3] was 12 nM. For the same molecule, the IC50 [4] was 1.2 nM.
